Results reported in patent publication US10849918B2, “Composition for optic nerve protection” (TOHOKU TECHNO ARCH CO., LTD., priority 2015, dated 2020).

Tested on: retinal ganglion cells
Experiment: Test 2: optic nerve protection in optic nerve crush injury murine model, oral administration
Assay type: in vivo, mice
Conditions: summary statement; oral or intraocular administration, optic nerve crush injury model and NMDA model
Method: The nerve protection effect of each ingredient was verified by using a rodent glaucoma pathological model of an optic nerve crush injury murine model.
Test animal: male C57BL/6 strain mice, 9-12 weeks old, each approximately 25 g
The experiment was conducted according to the following method. The number of samples in each group was 8.
(2) To the mice in the experimental groups, each ingredient prepared as shown in Table 2 was orally administered at a dosage as shown in Table 2 once a day from one week before the optic nerve crush treatment; to the mice in the control groups, 100 μL of distilled water or phosphate-buffered saline (containing no Ca or Mg, pH: 7.4, hereinafter abbreviated as “PBS(−)”) was administered likewise.
(3) The optic nerve crush treatment on the mice was performed under anesthesia by administering ketamine (100 mg/kg) and xylazine (5 mg/kg). The optic nerve crush treatment was performed on only single eyes, and the fellow eyes were untreated. After the optic nerve crush treatment was completed, an antibacterial ophthalmic ointment was instilled to the eyes of the mice. […]
(7) The number of cells labeled with Fluoro-Gold was counted to obtain an average number at the 12 sites. […]

In the case of `COc1ccc([C@@H]2CC(=O)c3c(O)cc(O[C@@H]4O[C@H](CO[C@@H]5O[C@@H](C)[C@H](O)[C@@H](O)[C@H]5O)[C@@H](O)[C@H](O)[C@H]4O)cc3O2)cc1O` [hesperidin], the “protection effect on the death of retinal ganglion cells” value is reported as “excellent protection effect on the death of retinal ganglion cells”.
